# Values of other authors in US20120004294A1, “ANTITUMOR COMBINATION COMBINING AVE8062 AND DOCETAXEL” (SANOFI, priority 2008, published 2012).
# Settings: AVE8062A alone, at too high a dose (weekly doses 4.5-30 mg/m^2 studied)
smiles,measurement,value
COc1ccc(/C=C\c2cc(OC)c(OC)c(OC)c2)cc1NC(=O)[C@@H](N)CO [AVE8062A],Cardiotoxicity,cardiotoxicity was observed
